What was measured:
[1] = 101.33 kPa, Liquid; for viscosity: Falling or rolling sphere viscometry
[2] = xn = mol fraction of the nth substance listed; conditions: 101 kPa, Liquid; for viscosity: Falling or rolling sphere viscometry

OCCO [1,2-ethanediol]
mass density [kg/m3], [1]
Conditions	Buoyancy - hydrostatic balance	Pycnometric method
293.15 K	1113.58	1113.58
312.46 K	1100.88	–
314.45 K	–	1099.52
333.25 K	–	1086.3
333.55 K	–	1086.09
334.87 K	1085.13	–
349.24 K	1074.46	–
352.85 K	–	1071.71
353.65 K	–	1071.1
357.05 K	–	1068.48
365.7 K	1061.7	–
367.25 K	–	1060.47
380.82 K	1049.47	–
381.45 K	–	1048.95
395.55 K	1037.07	–
411.65 K	–	1023
421.7 K	1013.93	–
433.75 K	–	1002.77
461.55 K	–	975.83
464.4 K	972.98	–

[1]
Conditions	viscosity [mPa·s]
293.15 K	21.1
312.46 K	9.925
334.87 K	4.949
349.24 K	3.517
365.7 K	2.39
380.82 K	1.815
395.55 K	1.419
421.7 K	0.96
464.4 K	0.652

OCCOCCO [diethylene glycol]
mass density [kg/m3], [1]
Conditions	Buoyancy - hydrostatic balance	Pycnometric method
293.15 K	1117.04	1117.04
298.15 K	1114.02	–
312.6 K	1104.9	–
313.15 K	–	1104.54
314.15 K	–	1103.88
329.28 K	1093.62	–
333.25 K	–	1090.82
334.85 K	–	1089.68
344.99 K	1082.27	–
349.77 K	1078.67	–
352.55 K	–	1076.55
352.85 K	–	1076.32
366.77 K	1065.35	–
367.25 K	–	1064.96
381.65 K	–	1053.01
411.05 K	–	1026.74
413.65 K	1024.3	–
434.45 K	–	1004.06
464.05 K	973.11	–

[1]
Conditions	viscosity [mPa·s]
293.15 K	36.52
298.15 K	28.36
312.6 K	15.25
329.28 K	8.458
344.99 K	5.34
349.77 K	4.809
366.77 K	3.231
413.65 K	1.409
464.05 K	0.789

OCCOCCO [diethylene glycol] + OCCO
mass density [kg/m3], [2]
Conditions	298.15 K	318.55 K	322.34 K	333.45 K	353.83 K	367.15 K	392.87 K	436.08 K	462.75 K
Buoyancy - hydrostatic balance, x2 = 0.5	1112.21	–	1097.38	–	1075.19	–	1043.14	1001.82	973.24
Pycnometric method, x1 = 0.5	1112.21	1099.83	–	1089.92	–	1064.82	–	–	–

[2], x1 = 0.5
Conditions	viscosity [mPa·s]
298.15 K	21.12
322.34 K	8.316
353.83 K	3.488
392.87 K	1.641
436.08 K	0.885
462.75 K	0.671

OCCOCCOCCO [triethylene glycol]
[1]
Conditions	mass density [kg/m3]
293.15 K, Pycnometric method	1123.06
298.15 K, Buoyancy - hydrostatic balance	1119.75
312.96 K, Buoyancy - hydrostatic balance	1109.61
313.15 K, Pycnometric method	1109.47
314.15 K, Pycnometric method	1108.77
333.25 K, Pycnometric method	1094.96
334.85 K, Pycnometric method	1093.76
334.96 K, Buoyancy - hydrostatic balance	1093.69
349.25 K, Buoyancy - hydrostatic balance	1082.8
352.55 K, Pycnometric method	1080.21
352.85 K, Pycnometric method	1079.98
364.44 K, Buoyancy - hydrostatic balance	1070.74
367.25 K, Pycnometric method	1068.46
381.45 K, Pycnometric method	1056.66
411.65 K, Pycnometric method	1030.16
413.73 K, Buoyancy - hydrostatic balance	1028.27
433.75 K, Pycnometric method	1009.54
461.56 K, Pycnometric method	982.12
462.25 K, Buoyancy - hydrostatic balance	981.42
476.35 K, Pycnometric method	966.87

[1]
Conditions	viscosity [mPa·s]
298.15 K	36.82
312.96 K	19.03
334.96 K	9.002
349.25 K	5.945
364.44 K	4.131
413.73 K	1.679
462.25 K	0.997

OCCOCCOCCO [triethylene glycol] + OCCO
mass density [kg/m3], [2]
Conditions	298.13 K	298.15 K	322.36 K	355.34 K	392.2 K	434.59 K	462.61 K
Buoyancy - hydrostatic balance, x2 = 0.5	1115.1	–	1101.75	1079	1047.37	1002.88	968.72
Pycnometric method, x1 = 0.5	–	1115.45	–	–	–	–	–

[2], x1 = 0.5
Conditions	viscosity [mPa·s]
298.13 K	26.24
322.36 K	10.13
355.34 K	3.999
392.2 K	1.946
434.59 K	1.058
462.61 K	0.705

OCCOCCOCCO [triethylene glycol] + OCCOCCO
mass density [kg/m3], [2]
Conditions	298.15 K	322.43 K	355.15 K	391.02 K	432.13 K	473.1 K
Buoyancy - hydrostatic balance, x2 = 0.5	1116.28	1104.5	1083.98	1055.33	1014.59	965.58
Pycnometric method, x1 = 0.5	1115.61	–	–	–	–	–

[2], x1 = 0.5
Conditions	viscosity [mPa·s]
298.15 K	32.4
322.43 K	11.71
355.15 K	4.468
391.02 K	2.179
432.13 K	1.172
473.1 K	0.716
